Usually Ki stands for the dissociation constant of the complex between target and ligand, obtained from inhibition or displacement.

The values below come from ChEMBL document CHEMBL1155846, “Selectivity determinants of inhibitor binding to human 20alpha-hydroxysteroid dehydrogenase: crystal structure of the enzyme in ternary complex with coenzyme and the potent inhibitor 3,5-dichlorosalicylic acid” (J Med Chem, 2008).

For test [1], the target named is T1, Aldo-keto reductase family 1 member C3 (Homo sapiens, UniProt P42330).
T1 sequence (P42330 whole entry): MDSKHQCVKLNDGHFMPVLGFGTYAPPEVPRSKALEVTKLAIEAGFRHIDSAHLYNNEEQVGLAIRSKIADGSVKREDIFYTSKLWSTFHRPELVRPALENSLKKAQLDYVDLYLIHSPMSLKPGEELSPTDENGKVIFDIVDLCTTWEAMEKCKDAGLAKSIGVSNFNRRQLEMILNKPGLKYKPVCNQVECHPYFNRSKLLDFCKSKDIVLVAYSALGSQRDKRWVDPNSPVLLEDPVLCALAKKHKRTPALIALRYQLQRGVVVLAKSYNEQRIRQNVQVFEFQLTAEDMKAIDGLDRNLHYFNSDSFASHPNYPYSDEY
The test can be described thus: Inhibition of human recombinant AKR1C3.

In test [2] the target is T2, Aldo-keto reductase family 1 member C4 (Homo sapiens, UniProt P17516).
T2 sequence (P17516 whole entry): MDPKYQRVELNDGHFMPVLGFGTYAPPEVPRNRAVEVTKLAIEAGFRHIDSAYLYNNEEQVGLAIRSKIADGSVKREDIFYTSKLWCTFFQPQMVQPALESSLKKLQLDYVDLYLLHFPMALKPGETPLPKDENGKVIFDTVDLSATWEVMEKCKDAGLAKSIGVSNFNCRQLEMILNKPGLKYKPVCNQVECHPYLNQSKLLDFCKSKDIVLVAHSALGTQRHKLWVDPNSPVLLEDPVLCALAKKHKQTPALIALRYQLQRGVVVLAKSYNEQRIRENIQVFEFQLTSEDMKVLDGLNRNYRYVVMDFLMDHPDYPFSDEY
In words: Inhibition of human recombinant AKR1C4.

For `O=C(O)c1cc(Cl)cc(Cl)c1O`, the Ki came to 94 µM in test [1] and 24 µM in test [2].
